Activity calls are given as the source filed them. The rule behind the calls is not given here.
Tests used:
HCT-116 [1] = assay: Antiproliferative activity against human HCT-116 cells at 0.3 to 1.2 uM incubated for 48 hrs by EdU uptake assay; type: functional, cell-based; conditions: dose 0.3-1.2 µM
HCT-116 [2] = assay: Anti-invasion activity in human HCT-116 cells incubated for 24 hrs by transwell assay; type: functional, cell-based; conditions: dose 0.3-1.2 µM
HCT-116 [3] = assay: Induction of apoptosis in human HCT-116 cells assessed as viable cells at 1.2 uM incubated for 48 hrs by Annexin V-FITC/PI staining based flow cytometry (reference value: 96.2 %); type: functional; conditions: read-out: Activity
HCT-116 [4] = assay: Induction of cell cycle arrest in human HCT-116 cells assessed as decrease in CDK4 level incubated for 48 hrs by Western blot analysis; type: functional, cell-based; conditions: dose 0.3-1.2 µM
HCT-116 [5] = assay: Induction of apoptosis in human HCT-116 cells assessed as decrease in p-p38 level by Western blot analysis; type: functional, cell-based; conditions: dose 0.3-1.2 µM
HCT-116 [6] = assay: Induction of apoptosis in human HCT-116 cells harboring siPPIA-3 assessed as early apoptotic cells at 1.2 uM by Annexin V-FITC/PI staining based flow cytometry (reference value: 7.82 %); type: functional
[7] = Toxicity in BALB/c mouse implanted with mouse CT26 cells assessed as injury in liver at 15 to 45 mg/kg, ip qd treated for 14 days by H and E staining based analysis; type: organism-based; conditions: in vivo, 336 h, dose 15-45 mg/kg, time 14 day
[8] = Toxicity in BALB/c mouse implanted with mouse CT26 cells assessed as abnormality in lung at 15 to 45 mg/kg, ip qd treated for 14 days by H and E staining based analysis; type: organism-based; conditions: in vivo, 336 h, dose 15-45 mg/kg, time 14 day

C=C(C(=O)OC)N1c2nc(Cl)nc(Cl)c2N2C(c3ccccc3F)OC(C(=O)OCC)(C(=O)OCC)C12 (racemic)
Activity (HCT-116 [1]): Active
Activity (HCT-116 [2]): Dose-dependent-effect
viability at 1.2 µM (HCT-116 [3]): 68%
Activity (HCT-116 [4]): Dose-dependent-effect
Activity (HCT-116 [5]): Dose-dependent-effect
Activity (HCT-116 [6]): 8.6%
Activity [7]: Non-toxic
Activity [8]: Non-toxic
